From BindingDB's records for doi:10.1016/j.bmcl.2011.03.003 (Sanofi-Aventis, 2011)

What follows are molecules tested against Insulin-like growth factor 1 receptor (Homo sapiens, UniProt P08069) (assay: Inhibition of IGF-induced autophosphosphorylation of GST-tagged human IGF1R expressed in SF21 cells by time resolved-fluorescent assay).
Insulin-like growth factor 1 receptor, sequence (P08069 31-736 limits assumed): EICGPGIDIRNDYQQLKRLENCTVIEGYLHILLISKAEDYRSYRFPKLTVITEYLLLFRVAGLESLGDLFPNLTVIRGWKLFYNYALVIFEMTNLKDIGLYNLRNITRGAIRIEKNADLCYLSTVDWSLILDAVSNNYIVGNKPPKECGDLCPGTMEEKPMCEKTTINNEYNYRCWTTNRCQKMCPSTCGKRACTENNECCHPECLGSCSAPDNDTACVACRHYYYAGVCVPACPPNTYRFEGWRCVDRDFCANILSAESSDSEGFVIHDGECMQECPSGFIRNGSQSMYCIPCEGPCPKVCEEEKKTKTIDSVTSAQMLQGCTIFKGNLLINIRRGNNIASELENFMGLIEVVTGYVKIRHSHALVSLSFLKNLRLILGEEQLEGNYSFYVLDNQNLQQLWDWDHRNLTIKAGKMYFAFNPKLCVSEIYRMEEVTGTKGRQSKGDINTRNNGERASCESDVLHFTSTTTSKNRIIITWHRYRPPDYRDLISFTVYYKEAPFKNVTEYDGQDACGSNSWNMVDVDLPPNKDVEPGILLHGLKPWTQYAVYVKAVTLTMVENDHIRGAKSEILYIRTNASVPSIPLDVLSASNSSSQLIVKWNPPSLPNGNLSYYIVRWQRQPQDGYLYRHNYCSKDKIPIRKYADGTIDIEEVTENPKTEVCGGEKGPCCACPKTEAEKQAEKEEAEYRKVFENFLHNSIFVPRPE
Insulin-like growth factor 1 receptor, sequence (P08069 741-1367 limits assumed): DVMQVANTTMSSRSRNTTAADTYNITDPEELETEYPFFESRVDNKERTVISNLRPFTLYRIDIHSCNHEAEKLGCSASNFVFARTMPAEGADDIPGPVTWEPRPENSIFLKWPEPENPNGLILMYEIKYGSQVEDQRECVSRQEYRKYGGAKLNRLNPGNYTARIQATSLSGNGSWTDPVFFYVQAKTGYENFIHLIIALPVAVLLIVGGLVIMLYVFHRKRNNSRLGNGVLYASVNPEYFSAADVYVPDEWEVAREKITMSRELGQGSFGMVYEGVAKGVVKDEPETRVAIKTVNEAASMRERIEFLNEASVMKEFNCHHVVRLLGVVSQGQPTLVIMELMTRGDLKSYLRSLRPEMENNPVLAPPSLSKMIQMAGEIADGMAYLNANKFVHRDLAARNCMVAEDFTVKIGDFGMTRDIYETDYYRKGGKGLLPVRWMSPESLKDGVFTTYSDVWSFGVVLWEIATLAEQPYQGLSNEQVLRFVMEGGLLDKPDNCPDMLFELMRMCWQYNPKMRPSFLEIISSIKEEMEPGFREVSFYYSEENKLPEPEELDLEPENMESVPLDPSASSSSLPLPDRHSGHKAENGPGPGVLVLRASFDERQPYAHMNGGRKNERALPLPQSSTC

Compound | IC50 [µM]
Cc1c(O)n(-c2ccc(S(=O)(=O)C(F)(F)F)cc2)c(=O)n1Cc1ccccc1 [(S)-1-benzyl-5-methyl-3-(4-(trifluoromethylsulfonyl)phenyl)imidazolidine-2,4-dione] | > 100
Cc1c(O)n(-c2ccc(S(=O)(=O)C(F)(F)F)cc2)c(=O)n1Cc1cncc2ccccc12 [(S)-1-(isoquinolin-4-ylmethyl)-5-methyl-3-(4-(trifluoromethylsulfonyl)phenyl)imidazolidine-2,4-dione] | > 100
Cc1c(O)n(-c2ccc(S(=O)(=O)C(F)(F)F)cc2)c(=O)n1Cc1cc[n+]([O-])cc1 [(S)-4-((5-methyl-2,4-dioxo-3-(4-(trifluoromethylsulfonyl)phenyl)imidazolidin-1-yl)methyl)pyridine 1-oxide] | > 100
Cc1c(O)n(-c2ccc(S(=O)(=O)C(F)(F)F)cc2)c(=O)n1Cc1cnc[nH]1 [(S)-1-((1H-imidazol-4-yl)methyl)-5-methyl-3-(4-(trifluoromethylsulfonyl)phenyl)imidazolidine-2,4-dione] | > 100

Now from value to molecule:

IC50 [µM] | Compound
> 100 | Cc1c(O)n(-c2ccc(S(=O)(=O)C(F)(F)F)cc2)c(=O)n1Cc1cc[n+]([O-])c2ccccc12 [(S)-4-((5-methyl-2,4-dioxo-3-(4-(trifluoromethylsulfonyl)phenyl)imidazolidin-1-yl)methyl)quinoline 1-oxide]
> 100 | Cc1c(O)n(-c2ccc(S(=O)(=O)C(F)(F)F)cc2)c(=O)n1Cc1ccccn1 [(S)-5-methyl-1-(pyridin-2-ylmethyl)-3-(4-(trifluoromethylsulfonyl)phenyl)imidazolidine-2,4-dione]
> 100 | Cc1c(O)n(-c2ccc(S(C)(=O)=O)cc2)c(=O)n1Cc1ccnc2ccccc12 [(S)-5-methyl-3-(4-(methylsulfonyl)phenyl)-1-(quinolin-4-ylmethyl)imidazolidine-2,4-dione]
> 100 | Cc1c(O)n(-c2ccc(S(=O)(=O)C(F)(F)F)cc2)c(=O)n1CC1CCNCC1 [(S)-5-methyl-1-(piperidin-4-ylmethyl)-3-(4-(trifluoromethylsulfonyl)phenyl)imidazolidine-2,4-dione]
